This is an account of results in ChEMBL document CHEMBL5042492, “Noncovalent CDK12/13 dual inhibitors-based PROTACs degrade CDK12-Cyclin K complex and induce synthetic lethality with PARP inhibitor” (Eur J Med Chem, 2022).

As a reminder, the IC50 is the concentration that inhibits the measured activity by half. A word on the inhibition: it is the drop in the measured response relative to a control, in per cent.

The structures appear in SMILES notation. The source made the active and inactive calls. The rule behind the calls is not given here.

One test deals with CDK12/Cyclin K (Homo sapiens, UniProt Q9NYV4). Briefly: Inhibition of human CDK12 (696 to 1082 residues) /cyclinK (1 to 300 residues) using ac-YSPTSPpSYSPTSFpS-YSPTSPpSY-[PEG2]-RR-amid peptide as substrate in presence of ATP measured after 2 hrs by ADP-Glo kinase assay. It is filed as protein-complex assay. In general terms: ADP-Glo turns the ADP formed in a reaction into a luminescent signal.

The target in test [1] is T1, Protein cereblon/Cyclin-K/Cyclin-dependent kinase 12 (Homo sapiens, UniProt O75909+Q9NYV4+Q96SW2). Briefly: Protac activity at human CRBN/CDK12/CycK in human Bel-7402 (CRBN/KO) cells assessed as degradation of CDK12 measured after 24 hrs by Western blotting assay. Format: cell-based. Background: A western blot detects proteins with antibodies after separation by electrophoresis.

The target of test [2] is T1, Protein cereblon/Cyclin-K/Cyclin-dependent kinase 12. Briefly: Protac activity at human CRBN/CDK12/CycK in human MDA-MB-231(CRBN/KO) cells assessed as degradation of CDK12 measured after 24 hrs by Western blotting assay. Format: cell-based.
Test [3] deals with T2, CDK12/Cyclin K (Homo sapiens) (UniProt O75909+Q9NYV4). In words: Protac activity at human CDK12/CycK in human Bel-7402 (CRBN/WT) cells assessed as degradation of CDK12 measured after 24 hrs by Western blotting assay. It is filed as cell-based.
Test [4] concerns the target T2, CDK12/Cyclin K (Homo sapiens). In words: Protac activity at human CDK12/CycK in human MDA-MB-231 (CRBN/WT) cells assessed as degradation of CDK12 measured after 24 hrs by Western blotting assay. It is filed as cell-based.
Test [5] has as its system MDA-MB-231. Briefly: Antiproliferative activity against human MDA-MB-231 cells at 1 uM for 10 days by SRB staining based clone formation assay relative to control. To be noted: MDA-MB-231, 240 h, time 10 day. Format: functional. On the technique in general: Sulforhodamine B stains cellular protein and so reports cell mass.
Test [6] has as its system MDA-MB-231. Briefly: Antiproliferative activity against human MDA-MB-231 cells at 3 uM for 10 days by SRB staining based clone formation assay relative to control. Format: functional. To be noted: MDA-MB-231, 240 h, time 10 day.
For test [7], the target named is T1, Protein cereblon/Cyclin-K/Cyclin-dependent kinase 12. Briefly: Protac activity at human CRBN/CDK12/CycK in human Bel-7402 cells assessed as degradation of CDK12 at 3 uM measured after 24 hrs by Western blotting assay. Format: cell-based.
Test [8] has the same target. Briefly: Protac activity at human CRBN/CDK12/CycK in human MDA-MB-231 cells assessed as degradation of CDK12 at 3 uM measured after 24 hrs by Western blotting assay. Format: cell-based.
Test [9] concerns the target Cyclin-dependent kinase 13 (Homo sapiens) (UniProt Q14004). In words: Inhibition of human N-terminal FLAG-tagged CDK13 (600 to 1100 residues) using GST-tagged CTD as substrate at 3 uM for 2 hrs by western blot analysis.
In test [10] the target is T1, Protein cereblon/Cyclin-K/Cyclin-dependent kinase 12. Briefly: Protac activity at human CRBN/CDK12/CycK in human Bel-7402 cells assessed as RNAP2 CTD Ser2 phosphorylation level at 0.1 to 30 uM measured after 24 hrs by Western blotting assay. It is filed as cell-based. To be noted: dose 0.1-30 µM.
Test [11] shares this target. Briefly: Protac activity at human CRBN/CDK12/CycK in human MDA-MB-231 cells assessed as RNAP2 CTD Ser2 phosphorylation level at 0.1 to 30 uM measured after 24 hrs by Western blotting assay. Format: cell-based. To be noted: dose 0.1-30 µM.
For test [12] the target is unchanged. Briefly: Protac activity at human CRBN/CDK12/CycK in human Bel-7402 cells assessed as downregulation of Mcl-1 level upto 30 uM measured after 24 hrs by Western blotting assay. Particulars: dose microM <=30, time 24.0 hrs. It is filed as cell-based.
Test [13] has the same target. In words: Protac activity at human CRBN/CDK12/CycK in human MDA-MB-231 cells assessed as downregulation of Mcl-1 level upto 30 uM measured after 24 hrs by Western blotting assay. Format: cell-based. Particulars: dose microM <=30, time 24.0 hrs.

Chain of CDK12/Cyclin K (O75909 whole entry, the tested form may be a part): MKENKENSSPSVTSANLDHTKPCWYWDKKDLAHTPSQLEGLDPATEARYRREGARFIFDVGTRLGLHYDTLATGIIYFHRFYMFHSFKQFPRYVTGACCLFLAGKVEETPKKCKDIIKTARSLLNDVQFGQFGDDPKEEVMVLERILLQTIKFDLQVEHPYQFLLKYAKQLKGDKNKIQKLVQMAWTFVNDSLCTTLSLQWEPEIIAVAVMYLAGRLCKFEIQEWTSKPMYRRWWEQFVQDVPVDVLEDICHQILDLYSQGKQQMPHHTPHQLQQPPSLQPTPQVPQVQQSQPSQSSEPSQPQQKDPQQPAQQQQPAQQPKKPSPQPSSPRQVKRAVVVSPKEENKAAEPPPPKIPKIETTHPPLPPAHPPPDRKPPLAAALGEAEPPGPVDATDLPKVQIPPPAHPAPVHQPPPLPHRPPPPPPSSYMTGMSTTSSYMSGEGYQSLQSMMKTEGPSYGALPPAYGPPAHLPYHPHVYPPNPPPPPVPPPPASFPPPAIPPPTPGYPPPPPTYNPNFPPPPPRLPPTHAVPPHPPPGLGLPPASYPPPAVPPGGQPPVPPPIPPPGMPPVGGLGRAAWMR
Chain of CDK12/Cyclin K (Q9NYV4 whole entry, the tested form may be a part): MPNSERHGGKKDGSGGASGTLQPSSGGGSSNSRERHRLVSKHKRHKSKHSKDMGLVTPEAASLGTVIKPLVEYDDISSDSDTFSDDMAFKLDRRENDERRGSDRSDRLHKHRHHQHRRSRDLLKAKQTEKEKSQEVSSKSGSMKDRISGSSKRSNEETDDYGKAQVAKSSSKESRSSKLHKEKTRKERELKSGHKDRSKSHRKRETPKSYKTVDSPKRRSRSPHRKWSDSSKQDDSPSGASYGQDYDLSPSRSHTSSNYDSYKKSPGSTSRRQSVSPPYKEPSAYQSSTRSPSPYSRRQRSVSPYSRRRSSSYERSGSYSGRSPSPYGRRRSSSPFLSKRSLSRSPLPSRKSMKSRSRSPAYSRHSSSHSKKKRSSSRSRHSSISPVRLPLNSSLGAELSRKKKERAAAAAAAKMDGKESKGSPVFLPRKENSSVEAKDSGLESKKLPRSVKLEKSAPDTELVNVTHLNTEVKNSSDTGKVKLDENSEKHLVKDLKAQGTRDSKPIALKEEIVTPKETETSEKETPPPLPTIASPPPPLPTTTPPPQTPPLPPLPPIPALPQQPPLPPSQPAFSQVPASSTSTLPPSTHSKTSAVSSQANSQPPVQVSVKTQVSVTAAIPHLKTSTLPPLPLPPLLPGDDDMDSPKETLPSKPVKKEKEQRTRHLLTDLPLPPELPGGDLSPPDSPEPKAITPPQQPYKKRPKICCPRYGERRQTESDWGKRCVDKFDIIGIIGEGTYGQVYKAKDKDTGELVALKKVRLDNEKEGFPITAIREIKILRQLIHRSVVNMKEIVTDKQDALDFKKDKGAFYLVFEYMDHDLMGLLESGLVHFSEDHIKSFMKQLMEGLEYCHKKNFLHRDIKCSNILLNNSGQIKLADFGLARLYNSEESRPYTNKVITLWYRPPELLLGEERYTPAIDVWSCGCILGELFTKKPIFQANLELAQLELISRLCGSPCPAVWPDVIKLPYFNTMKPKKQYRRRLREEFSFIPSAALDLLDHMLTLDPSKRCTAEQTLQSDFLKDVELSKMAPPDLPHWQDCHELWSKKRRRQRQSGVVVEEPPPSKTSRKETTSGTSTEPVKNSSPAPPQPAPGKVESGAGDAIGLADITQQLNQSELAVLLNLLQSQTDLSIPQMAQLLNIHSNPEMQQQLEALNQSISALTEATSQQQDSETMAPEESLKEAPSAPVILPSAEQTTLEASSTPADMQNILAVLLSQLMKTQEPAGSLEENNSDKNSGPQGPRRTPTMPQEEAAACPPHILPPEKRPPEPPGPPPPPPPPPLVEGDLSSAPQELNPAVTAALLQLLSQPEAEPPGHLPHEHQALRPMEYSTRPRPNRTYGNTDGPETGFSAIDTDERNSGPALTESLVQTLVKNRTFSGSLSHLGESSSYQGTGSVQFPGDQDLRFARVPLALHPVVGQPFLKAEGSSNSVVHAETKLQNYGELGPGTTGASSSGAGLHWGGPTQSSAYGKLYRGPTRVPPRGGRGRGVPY
T1 sequence (O75909 whole entry, looked up): as the sequence (O75909 whole entry, the tested form may be a part) above
T1 sequence (Q96SW2 whole entry, looked up): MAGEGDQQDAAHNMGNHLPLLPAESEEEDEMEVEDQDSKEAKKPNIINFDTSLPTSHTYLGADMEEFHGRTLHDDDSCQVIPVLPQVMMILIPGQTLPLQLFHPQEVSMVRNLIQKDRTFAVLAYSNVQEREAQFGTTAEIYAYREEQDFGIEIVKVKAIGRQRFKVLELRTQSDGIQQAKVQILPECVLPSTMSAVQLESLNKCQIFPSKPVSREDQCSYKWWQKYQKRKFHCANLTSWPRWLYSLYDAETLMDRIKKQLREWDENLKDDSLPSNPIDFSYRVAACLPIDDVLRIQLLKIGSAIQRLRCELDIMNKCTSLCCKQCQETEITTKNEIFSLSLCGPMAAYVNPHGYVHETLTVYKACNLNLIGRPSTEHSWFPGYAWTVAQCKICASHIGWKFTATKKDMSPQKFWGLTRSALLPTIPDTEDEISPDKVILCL
T1 sequence (Q9NYV4 whole entry, looked up): as the sequence (Q9NYV4 whole entry, the tested form may be a part) above
T2 sequence (O75909 whole entry, looked up): as the sequence (O75909 whole entry, the tested form may be a part) above
T2 sequence (Q9NYV4 whole entry, looked up): as the sequence (Q9NYV4 whole entry, the tested form may be a part) above
Chain of Cyclin-dependent kinase 13 (Homo sapiens) (Q14004 whole entry, looked up, the tested form may be a part): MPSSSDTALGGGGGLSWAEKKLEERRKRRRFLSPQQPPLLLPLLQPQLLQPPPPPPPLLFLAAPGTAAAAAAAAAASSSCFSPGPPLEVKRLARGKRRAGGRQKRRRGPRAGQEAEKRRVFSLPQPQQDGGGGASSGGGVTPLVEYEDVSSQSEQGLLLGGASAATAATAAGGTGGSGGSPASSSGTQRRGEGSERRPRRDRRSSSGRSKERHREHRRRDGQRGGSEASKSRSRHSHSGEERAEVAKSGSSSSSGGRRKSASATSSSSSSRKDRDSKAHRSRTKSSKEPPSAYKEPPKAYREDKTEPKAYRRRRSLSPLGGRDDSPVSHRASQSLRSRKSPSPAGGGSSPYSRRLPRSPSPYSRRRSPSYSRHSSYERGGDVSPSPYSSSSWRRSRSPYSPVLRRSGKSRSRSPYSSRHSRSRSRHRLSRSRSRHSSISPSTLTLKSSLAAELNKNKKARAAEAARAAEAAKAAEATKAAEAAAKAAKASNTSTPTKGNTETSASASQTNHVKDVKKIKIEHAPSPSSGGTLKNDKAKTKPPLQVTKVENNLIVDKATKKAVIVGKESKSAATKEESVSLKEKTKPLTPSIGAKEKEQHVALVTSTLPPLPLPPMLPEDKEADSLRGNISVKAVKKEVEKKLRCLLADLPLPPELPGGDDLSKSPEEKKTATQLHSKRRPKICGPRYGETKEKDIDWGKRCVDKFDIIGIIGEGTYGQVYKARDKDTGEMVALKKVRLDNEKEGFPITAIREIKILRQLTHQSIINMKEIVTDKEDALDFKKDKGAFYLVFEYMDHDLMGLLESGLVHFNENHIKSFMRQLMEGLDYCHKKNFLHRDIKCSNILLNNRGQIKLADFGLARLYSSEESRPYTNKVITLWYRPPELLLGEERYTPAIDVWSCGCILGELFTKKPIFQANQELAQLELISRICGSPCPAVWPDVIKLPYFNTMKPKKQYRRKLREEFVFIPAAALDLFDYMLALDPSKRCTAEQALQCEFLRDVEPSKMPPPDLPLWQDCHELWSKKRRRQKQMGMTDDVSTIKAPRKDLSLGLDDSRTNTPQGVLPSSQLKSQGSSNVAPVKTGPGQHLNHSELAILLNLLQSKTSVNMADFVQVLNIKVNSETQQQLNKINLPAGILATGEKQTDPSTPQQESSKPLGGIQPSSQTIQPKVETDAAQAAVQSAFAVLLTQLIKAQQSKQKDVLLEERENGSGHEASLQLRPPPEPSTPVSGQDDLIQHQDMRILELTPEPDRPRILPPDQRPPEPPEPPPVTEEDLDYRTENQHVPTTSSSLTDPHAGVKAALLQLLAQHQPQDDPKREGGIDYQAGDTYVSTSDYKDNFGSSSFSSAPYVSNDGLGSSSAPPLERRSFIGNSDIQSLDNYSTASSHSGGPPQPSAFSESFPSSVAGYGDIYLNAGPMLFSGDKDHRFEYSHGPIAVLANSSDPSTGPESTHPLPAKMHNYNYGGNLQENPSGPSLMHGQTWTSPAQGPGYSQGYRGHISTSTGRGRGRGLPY

Consider `COCCOCCOc1cc2[nH]c(CNc3nc(N4CCOCC4)nc4c3ncn4-c3cnn(C)c3)nc2cc1F`, for which the IC50 on CDK12/Cyclin K was 411 nM.

As for `Cn1cc(-n2cnc3c(NCc4nc5cc(Cl)c(Cl)cc5[nH]4)nc(N4CCOCC4)nc32)cn1`, the outcome in [1], in test [2], in [3] and in test [4] was Active.

Take `COCCOCCOc1cc2[nH]c(CNc3nc(N4CCOCC4)nc4c3ncn4C(C)C)nc2cc1F`: the concentration for half-maximal inhibition (IC50) on CDK12/Cyclin K stood at 237 nM.

Take `O=C(c1cc(Cc2n[nH]c(=O)c3ccccc23)ccc1F)N1CCN(C(=O)C2CC2)CC1` [OLAPARIB]: at 1 µM the inhibition in the test with MDA-MB-231 [5] was 12.4%. The same compound gave an inhibition at 3 µM in the test with MDA-MB-231 [6] of 98%.

In the case of `CC(C)n1cnc2c(NCc3nc4cc(F)c(NCCCCCCCCCCCCNC(=O)COc5cccc6c5C(=O)N(C5CCC(=O)NC5=O)C6=O)cc4[nH]3)nc(N3CCOCC3)nc21` (configuration not stated), the outcome in test [7] and in test [8] was Active. Moreover, the IC50 at CDK12/Cyclin K came out at 2000 nM. Further, the inhibition result in test [9] was “inactive”.

As for `CC(C)n1cnc2c(NCc3nc4cc(F)c(NCCCCCCCCCCNC(=O)COc5cccc6c5C(=O)N(C5CCC(=O)NC5=O)C6=O)cc4[nH]3)nc(N3CCOCC3)nc21` (configuration not stated), the outcome in test [7] and in [8] was Active.

As to `COCCOCCOc1cc2[nH]c(CNc3nc(OCC[C@@H]4CCCCN4)nc4c3ncn4C(C)C)nc2cc1F`, the 50% inhibitory concentration (IC50) on CDK12/Cyclin K came to 66.4 nM.

For `CN(C)C/C=C/C(=O)Nc1ccc(C(=O)N2CCC[C@@H](Nc3ncc(Cl)c(-c4c[nH]c5ccccc45)n3)C2)cc1`, the outcome in test [10], in test [11], in test [12] and in test [13] was Active.

Regarding `CC(C)n1cnc2c(NCc3nc4cc(F)c(NCCCCCCNC(=O)COc5cccc6c5C(=O)N(C5CCC(=O)NC5=O)C6=O)cc4[nH]3)nc(N3CCOCC3)nc21` (configuration not stated), the outcome in test [7] and in test [8] was Active. In addition, on CDK12/Cyclin K, the IC50 amounted to 119 nM.
